{"source": "patent US20090311317A1", "about": "“MODIFIED RELEASE TOLTERODINE FORMULATIONS” (Capricorn Pharma Inc., priority 2008, published 2009)", "origin": "cited, not measured here", "key": {"bladder": {"test_system": "bladder", "conditions": "versus oxybutynin"}, "[1]": {"test_system": "muscarinic receptors of the salivary gland", "conditions": "versus oxybutynin"}}, "note": "Structures can show the parent of a compound that is named as a salt.", "data": [{"smiles": "Cc1ccc(O)c([C@@H](CCN(C(C)C)C(C)C)c2ccccc2)c1", "note": "[tolterodine, (+)-N,N-diisopropyl-3-(2-hydroxy-5-methylphenyl)-3-phenylpropylamine L-hydrogen tartrate]", "values": [{"measurement": "potency in the bladder relative to oxybutynin", "setting": "bladder", "value": "equipotent with oxybutynin"}, {"measurement": "affinity for muscarinic receptors of the salivary gland relative to oxybutynin", "setting": "[1]", "value": "eight times lower"}]}]}
